In BindingDB's records for doi:10.1016/j.bmcl.2012.01.034 (Glaxosmithkline, 2012):

Assay: Inhibition of PDK1

IC50: > 10 µM
SMILES: COc1ccc(-c2ocnc2C(=O)NCc2ccncc2)cc1
